According to patent publication US20180250321A1, “COMPOSITIONS AND METHODS FOR RESTORING THE IMMUNE SYSTEM” (ORPHEUS THERAPEUTICS, INC., priority 2017, published 2018):

Tests used:
[1] = system: NKT cells; assay: IFNγ production in mice injected with glycolipid in the presence or absence of GD3 (FIG. 18); assay type: in vivo, wild-type C57BL/6 mice; conditions: C57BL/6 mice
Procedure: OT-0010 is effective at restoring NKT cell function when wild-type C57BL/6 mice were injected intravenously with either αGalCer (KRN7000) or OT-0010 in the presence or absence of GD3.
In addition, the glycolipids of the present invention are able to fully restore IFN-γ levels, and cause a restoration of NKT cells to a Th-1 response profile (FIG. 18). […] When α-GalCer is administered at a dosage of 3 μgm, only 50% NKT cell function is restored (FIG. 25). While not wishing to be bound by theory, the reason why the glycolipids of the present invention are able to restore NKT cells to a Th-1 response profile is because these glycolipids bind more strongly to CD1d. From a thermodynamic perspective, it is impossible for GD3 to displace these glycolipids from CD1d. […] Again, while not wishing to be bound by theory, it is believed that the glycolipids of the present invention bind more strongly to CD1d due to the incorporation of the -phenyl ring to the distal end of the aliphatic carbon chain attached to the amide group connected to the C1 glycoside linkage of the galactose sugar moiety. The terminal fluorine, —OMe, or —CF3 further enhance the binding of the glycolipids of the present invention to CD1d. The results disclosed in FIG. 18 are unexpected.

[2] = system: NKT cells; conditions: cited from earlier work

Row | Molecule | IFNγ production ([1]; substance alone, intravenous) | α-GalCer-induced cytokine production in vivo (IFN-γ, IL-4, IL-12) ([2]; 1 μg α-GalCer intravenously with or without GD3, serum ELISA) | IFN-γ production by NKT cells ([2]; FIG. 25, effect of GD3) | IFNγ production ([1]; glycolipid + GD3, intravenous) | restoration of IFN-γ levels ([2]; FIG. 25, in the presence of GD3) | NKT cell function restored ([2]; dosage of 3 μgm, in the presence of GD3, FIG. 25) [%]
1 | Ganglioside D3 [GD3] | Inhibition of IFNγ production | inhibits | dramatic decrease in IFN-γ production |  |  | 
2 | CCCCCCCCCCCCCCCCCCCCCCCCCC(=O)N[C@@H](CO[C@H]1O[C@H](CO)[C@H](O)[C@H](O)[C@H]1O)[C@H](O)[C@H](O)CCCCCCCCCCCCCC [α-GalCer] |  |  |  | Inhibition of IFNγ production | does not restore IFN-γ levels | 50
